A value given as a limit tells only on which side of the number the result lay.

Broadly, the IC50 is the point on the concentration scale where inhibition reaches its midpoint. The low end stands for higher potency, the high end for lower potency.

This test has as its target T1, Lanosterol 14-alpha demethylase (Homo sapiens, UniProt Q16850).
T1 sequence (Q16850 whole entry): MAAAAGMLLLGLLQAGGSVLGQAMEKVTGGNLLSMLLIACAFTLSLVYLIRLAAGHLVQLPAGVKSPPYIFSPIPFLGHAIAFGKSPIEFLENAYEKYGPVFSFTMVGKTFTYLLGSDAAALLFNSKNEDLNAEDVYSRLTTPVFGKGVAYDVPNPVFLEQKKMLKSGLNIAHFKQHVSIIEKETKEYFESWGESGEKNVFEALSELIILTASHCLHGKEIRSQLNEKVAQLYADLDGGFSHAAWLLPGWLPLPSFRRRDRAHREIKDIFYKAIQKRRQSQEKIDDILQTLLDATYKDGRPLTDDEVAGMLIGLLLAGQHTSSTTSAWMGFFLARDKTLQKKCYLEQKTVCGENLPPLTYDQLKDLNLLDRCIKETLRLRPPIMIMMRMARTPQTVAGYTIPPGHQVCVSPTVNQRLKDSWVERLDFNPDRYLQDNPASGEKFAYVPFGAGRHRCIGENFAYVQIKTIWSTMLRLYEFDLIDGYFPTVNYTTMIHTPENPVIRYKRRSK
The test is described as follows: Inhibition of CYP51A1. An excerpt: Method: Recombinant human CYP51A1 (lanosterol-14a-demethylase) enzyme was coexpressed with CYP reductase in bacterial membranes and the fluorescent substrate BOMCC (a nonnatural substrate that causes increases in fluorescence upon CYP51A1-dependent demethylation) was used to obtain 8-point dose concentration-response curves for each compound.
For `CCC(=O)N(CCc1ccc(C(F)(F)F)nc1)C[C@@H](O)c1cccnc1` [US20230339890, Compound 30], the IC50 is more than 1000 nM.
The figure for `CCC(=O)N(C[C@@H](O)c1cccnc1)C1CCc2cc(Cl)c(Cl)cc2C1` (some centres undefined) [US20230339890, Compound 70] is less than 100 nM.
The figure for `CC(C)(C)OC(=O)NCCCCCN(C[C@@H](O)c1cccnc1)C(=O)Cc1ccc(C#N)c(Cl)c1` [US20230339890, Compound 142] is less than 100 nM; for `CC(C)(C)OC(=O)NCCCCN(C[C@@H](O)c1cccnc1)C(=O)Cc1ccc(C(F)(F)F)nc1` [US20230339890, Compound 144] it is less than 100 nM.

Source of the values: BindingDB's records for patent US20230339890 (Kineta, 2023).
